Values after ≈ are worked out from the molar mass of the structure shown.
Columns and labels:
Format in all cases: functional
[1] = test system: Escherichia coli; experiment: Antibacterial activity against Escherichia coli ATCC 25922 assessed as inhibition of bacterial growth incubated for 24 hrs
[2] = test system: Pseudomonas aeruginosa; experiment: Antibacterial activity against Pseudomonas aeruginosa clinical isolate assessed as inhibition of bacterial growth incubated for 24 hrs
[3] = test system: Escherichia coli; experiment: Antibacterial activity against Escherichia coli clinical isolate assessed as inhibition of bacterial growth incubated for 24 hrs
[4] = test system: Acinetobacter baumannii; experiment: Antibacterial activity against Acinetobacter baumannii clinical isolate assessed as inhibition of bacterial growth incubated for 24 hrs
[5] = test system: Staphylococcus aureus; experiment: Antibacterial activity against Staphylococcus aureus clinical isolate assessed as inhibition of bacterial growth incubated for 24 hrs
[6] = test system: Staphylococcus aureus; experiment: Antibacterial activity against methicillin resistant Staphylococcus aureus clinical isolate assessed as inhibition of bacterial growth incubated for 24 hrs
[7] = test system: Staphylococcus aureus; experiment: Antibacterial activity against Staphylococcus aureus ATCC 25923 assessed as inhibition of bacterial growth incubated for 24 hrs
[8] = test system: Staphylococcus aureus; experiment: Antibacterial activity against Staphylococcus aureus ATCC 29213 assessed as inhibition of bacterial growth incubated for 24 hrs
[9] = test system: Klebsiella pneumoniae; experiment: Antibacterial activity against Klebsiella pneumoniae clinical isolate assessed as inhibition of bacterial growth incubated for 24 hrs
[10] = test system: Enterococcus faecalis; experiment: Antibacterial activity against Enterococcus faecalis clinical isolate assessed as inhibition of bacterial growth incubated for 24 hrs
[11] = test system: Pseudomonas aeruginosa; experiment: Antibacterial activity against Pseudomonas aeruginosa ATCC 27853 assessed as inhibition of bacterial growth incubated for 24 hrs

SMILES | MIC [1] [µg/mL] | MIC [2] [µg/mL] | MIC [3] [µg/mL] | MIC [4] [µg/mL] | MIC [5] [µg/mL] | MIC [6] [µg/mL] | MIC [7] [µg/mL] | MIC [8] [µg/mL] | MIC [9] [µg/mL] | MIC [10] [µg/mL] | MIC [11] [µg/mL]
CCCn1cc(C(=O)O)c(=O)c2cc(F)c(CC#N)cc21 | 2 (≈ 6.94 µM) | 0.5 (≈ 1.73 µM) | 8 (≈ 27.8 µM) | 32 (≈ 111 µM) | 4 (≈ 13.9 µM) | 1 (≈ 3.47 µM) | 0.25 (≈ 0.867 µM) | 4 (≈ 13.9 µM) | 1 (≈ 3.47 µM) | 32 (≈ 111 µM) | 2 (≈ 6.94 µM)
N#CCc1cc2c(cc1F)c(=O)c(C(=O)O)cn2Cc1c(F)cccc1F | 2 (≈ 5.37 µM) | 4 (≈ 10.7 µM) | 32 (≈ 86 µM) | 8 (≈ 21.5 µM) | 4 (≈ 10.7 µM) | 4 (≈ 10.7 µM) | 4 (≈ 10.7 µM) | 4 (≈ 10.7 µM) | 8 (≈ 21.5 µM) | 2 (≈ 5.37 µM) | 4 (≈ 10.7 µM)
N#CCc1cc2c(cc1F)c(=O)c(C(=O)O)cn2Cc1ccccn1 | 0.25 (≈ 0.741 µM) | 0.5 (≈ 1.48 µM) | 8 (≈ 23.7 µM) | 2 (≈ 5.93 µM) | 256 (≈ 759 µM) | 32 (≈ 94.9 µM) | 1 (≈ 2.96 µM) | 8 (≈ 23.7 µM) | 4 (≈ 11.9 µM) | 8 (≈ 23.7 µM) | 16 (≈ 47.4 µM)
O=C(O)Cc1cc2c(cc1F)c(=O)c(C(=O)O)cn2Cc1ccccn1 | 32 (≈ 89.8 µM) | 64 (≈ 180 µM) | 128 (≈ 359 µM) | 64 (≈ 180 µM) | 64 (≈ 180 µM) | 128 (≈ 359 µM) | 16 (≈ 44.9 µM) | 64 (≈ 180 µM) | 8 (≈ 22.5 µM) | 16 (≈ 44.9 µM) | 8 (≈ 22.5 µM)
N#CCc1cc2c(cc1F)c(=O)c(C(=O)O)cn2CC1CCCC1 | 256 (≈ 780 µM) | 256 (≈ 780 µM) | 32 (≈ 97.5 µM) | 128 (≈ 390 µM) | 128 (≈ 390 µM) | 256 (≈ 780 µM) | 64 (≈ 195 µM) | 256 (≈ 780 µM) | 256 (≈ 780 µM) | 256 (≈ 780 µM) | 128 (≈ 390 µM)
N#CCc1cc2c(cc1F)c(=O)c(C(=O)O)cn2CC1CCC1 | 128 (≈ 407 µM) | 256 (≈ 814 µM) | 128 (≈ 407 µM) | 256 (≈ 814 µM) | 64 (≈ 204 µM) | 128 (≈ 407 µM) | 0.5 (≈ 1.59 µM) | 256 (≈ 814 µM) | 256 (≈ 814 µM) | 32 (≈ 102 µM) | 128 (≈ 407 µM)
N#CCc1cc2c(cc1F)c(=O)c(C(=O)O)cn2CCN1CCOCC1 | 4 (≈ 11.1 µM) | 2 (≈ 5.57 µM) | 16 (≈ 44.5 µM) | 8 (≈ 22.3 µM) | 16 (≈ 44.5 µM) | 8 (≈ 22.3 µM) | 1 (≈ 2.78 µM) | 4 (≈ 11.1 µM) | 8 (≈ 22.3 µM) | 16 (≈ 44.5 µM) | 16 (≈ 44.5 µM)
CCCCCCCCn1cc(C(=O)O)c(=O)c2cc(F)c(CC(=O)O)cc21 | 2 (≈ 5.3 µM) | 1 (≈ 2.65 µM) | 2 (≈ 5.3 µM) | 4 (≈ 10.6 µM) | 16 (≈ 42.4 µM) | 4 (≈ 10.6 µM) | 4 (≈ 10.6 µM) | 4 (≈ 10.6 µM) | 0.5 (≈ 1.32 µM) | 2 (≈ 5.3 µM) | 2 (≈ 5.3 µM)
CCCCCCn1cc(C(=O)O)c(=O)c2cc(F)c(CC#N)cc21 | 0.5 (≈ 1.51 µM) | 2 (≈ 6.05 µM) | 4 (≈ 12.1 µM) | 256 (≈ 775 µM) | 256 (≈ 775 µM) | 256 (≈ 775 µM) | 0.25 (≈ 0.757 µM) | 256 (≈ 775 µM) | 8 (≈ 24.2 µM) | 256 (≈ 775 µM) | 256 (≈ 775 µM)
CCn1cc(C(=O)O)c(=O)c2cc(F)c(CC#N)c(F)c21 | 0.5 (≈ 1.71 µM) | 1 (≈ 3.42 µM) | 4 (≈ 13.7 µM) | 0.5 (≈ 1.71 µM) | 0.25 (≈ 0.855 µM) | 1 (≈ 3.42 µM) | 16 (≈ 54.7 µM) | 1 (≈ 3.42 µM) | 16 (≈ 54.7 µM) | 8 (≈ 27.4 µM) | 4 (≈ 13.7 µM)
N#CCc1cc2c(cc1F)c(=O)c(C(=O)O)cn2Cc1ccc(C(F)(F)F)cc1 | 8 (≈ 19.8 µM) | 16 (≈ 39.6 µM) | 256 (≈ 633 µM) | 64 (≈ 158 µM) | 8 (≈ 19.8 µM) | 16 (≈ 39.6 µM) | 2 (≈ 4.95 µM) | 4 (≈ 9.89 µM) | 64 (≈ 158 µM) | 0.5 (≈ 1.24 µM) | 8 (≈ 19.8 µM)
Cn1cc(C(=O)O)c(=O)c2cc(F)c(CC#N)cc21 | 1 (≈ 3.84 µM) | 0.5 (≈ 1.92 µM) | 16 (≈ 61.5 µM) | 4 (≈ 15.4 µM) | 1 (≈ 3.84 µM) | 2 (≈ 7.69 µM) | 1 (≈ 3.84 µM) | 8 (≈ 30.7 µM) | 0.5 (≈ 1.92 µM) | 4 (≈ 15.4 µM) | 2 (≈ 7.69 µM)
CCCCn1cc(C(=O)O)c(=O)c2cc(F)c(CC#N)cc21 | 0.5 (≈ 1.65 µM) | 0.5 (≈ 1.65 µM) | 4 (≈ 13.2 µM) | 256 (≈ 847 µM) | 8 (≈ 26.5 µM) | 0.5 (≈ 1.65 µM) | 0.25 (≈ 0.827 µM) | 8 (≈ 26.5 µM) | 1 (≈ 3.31 µM) | 64 (≈ 212 µM) | 4 (≈ 13.2 µM)
N#CCc1cc2c(cc1F)c(=O)c(C(=O)O)cn2Cc1cnc(Cl)s1 | 1 (≈ 2.65 µM) | 0.5 (≈ 1.32 µM) | 8 (≈ 21.2 µM) | 16 (≈ 42.4 µM) | 8 (≈ 21.2 µM) | 1 (≈ 2.65 µM) | 8 (≈ 21.2 µM) | 4 (≈ 10.6 µM) | 8 (≈ 21.2 µM) | 16 (≈ 42.4 µM) | 2 (≈ 5.29 µM)

— ChEMBL document CHEMBL5506059, “Cyanomethylquinolones as a New Class of Potential Multitargeting Broad-Spectrum Antibacterial Agents” (J Med Chem, 2024)
